Patent US20060078504A1, “Sustanined-release pharmaceutical composition for lung administration” (priority 2003, published 2006)

Assay: Test Example 1: serum theophylline pharmacokinetics after intratracheal administration of solutions A to D to rats
Format: in vivo, Wistar male rats
Conditions: solution A, intratracheal vs intravenous (femoral vein), rat, FIG. 1
Description: Wistar male rats (body weight about 220 g) fasted for about 18 hours were used as experimental animals. […] That is, the rats were anesthetized with pentobarbital (about 32 mg/kg) and secured on their back on animal boards, the tracheas were exposed through a longitudinal incision. A section of polyethylene tube (i.d. 1.5 mm, o.d. 2.3 mm) 2.5 cm in length was inserted through the tracheal incision for a distance of 0.6 cm between the forth and fifth tracheal rings caudal to the thyroid cartilage. Each of one hundred microliters of drug solutions A-D was drawn into a glass microsyringe, and then rat was maintained at an angle of 80°. The tip of syringe was inserted through the polyethylene tube to 1-2 mm above the bifurcation of the trachea. Then, the solution was injected over a period of 1-2 sec. About 45 sec after the administration, the rat was positioned at an angle of 10° and the incision in the skin was then closed with suture.
The theophylline concentrations in the obtained serum were measured by HPLC.

Cn1c(=O)c2[nH]cnc2n(C)c1=O [theophylline]
pulmonary absorption compared with intravenous administration (in words): as quick and effective as achieved by intravenous administration
